Reference: PubChem BioAssay AID1963837 (Molecular Pharmacology Branch, DTP, NCI, 2024)

System: 843126-344-R-J1-PDC complex spheroid viability
Assay: Anticancer human tumor 843126-344-R-J1-PDC patient-derived melanoma cell line growth inhibition [POLQ]
Conditions: for IC50: curve of first compound; for viability, T/C: stronger effect = lower value
Description: Multicellular complex tumor spheroid response to Polymerase (POL) inhibitors (novobiocin, ART-558, RP6685) in combination with a variety of drugs and investigational agents in selected tumor cell lines
The POL inhibitors (novobiocin, ART-558, and RP6685) were evaluated both individually and in combination with standard of care and investigational anticancer small molecules within a complex spheroid model of solid tumors. . Complex spheroids include a stromal component modeled by human endothelial cells (HUVEC) and fibroblasts modeled by human mesenchymal stem cells (MSCs). The concentration ranges selected for each drug and investigational agent were based upon clinically achievable concentrations if the clinical Cmax of the agent was known.
Compounds. The drugs and investigational agents: novobiocin (NSC847541), ART-558 (NSC835418), RP-6685 (NSC848927), peposertib (NSC802822), ceralasertib (NSC780249), elimusertib (NSC800525), camonsertib (NSC841442), AZD-1390 (NSC803789), olaparib (NSC753686), talazoparib (NSC767125), rucaparib (NSC756644), sotorasib (NSC818433), MRTX-1133 (NSC836407), SN-38 (NSC673596), topotecan (NSC609699), epotoside (NSC141540), doxorubicin (NSC123127), gemcitabine (NSC613327), 5-fluorouracil (NSC19893), paclitaxel (NSC125973), vemurafenib (NSC761431), MSA-2 (NSC828583), SN-011 (NSC837082), adavosertib (NSC754352), prexasertib (NSC758257), carboplatin (NSC241240) and oxaliplatin (NSC266046), were obtained from the National Cancer Institute (NCI) Developmental Therapeutics Program Chemical Repository (21). The FDA-approved anticancer drug set is available from the Developmental Therapeutics Program at https://dtp.cancer.gov/organization/dscb/obtaining/. […] The stock solutions were prepared in dimethyl sulfoxide (DMSO, Sigma-Aldrich, St. Louis, MO, cat. D2650), except for the platinum compounds which were prepared in saline (Quality Biological, Gaithersburg, MD, cat. 114-055-101), at 800-fold the tested concentration and stored at -70 degrees C prior to their use. All drugs and investigational agents were tested over a range starting from a high concentration at or near the clinical Cmax and decreasing in half-log increments. If the clinical Cmax for an agent had not been determined, the highest concentration tested was 10 microM, except for SN-38, which was tested at a high concentration of 1 microM.
Cell Culture. All cells were maintained in an incubator at 37 degrees C and 5% CO2 with 95% humidity. The PDC lines were cultured according to standard operating procedures established by the NCI PDMR (https://pdmr.cancer.gov). Table 3 of the manuscript, lists the cell lines along with the number of the three cell types plated to form the mct-spheroids and media for tumor cell growth. After thawing, all PDC lines, except 997537-175-T-J1-PDC and 415267-285-R-J2-PDC, were cultured in Matrigel-coated flasks prepared with a working solution of 1X Ham's F-12 nutrient mix, without supplementation (Thermo Fisher Scientific, cat. 11765054), 100 U/mL penicillin-streptomycin (Thermo Fisher Scientific, cat. 15140122), and 2.5% Matrigel (Corning Inc., Corning, NY, cat. 354248) for the first three passages. The two PDC lines 997537-175-T-J1-PDC and 415267-285-R-J2-PDC were cultured on uncoated flasks. The 857933-349-R-J2-PDC line was cultured in 6C/Colon 1B media containing advanced DMEM/F-12 (Thermo Fisher Scientific, cat. 12634028), 10 mM HEPES (Thermo Fisher Scientific, cat. 15630080), 1X GlutaMAX supplement (Thermo Fisher Scientific, cat. 35050061), 0.1 mg/mL primocin (InvivoGen, San Diego, CA, cat. ant-pm-2), 10% defined fetal bovine serum, heat inactivated (HyClone Laboratories Inc., Logan, UT, cat. SH30070.03HI), 50% L-WRN conditioned media (ATCC, cat. CRL-3276), 1.25 mM N-Acetyl-L-cysteine (Sigma-Aldrich, cat. A9165), 10 mM nicotinamide (Sigma-Aldrich, cat. N0636), 1X B-27 supplement (Thermo Fisher Scientific, cat. 17504044), 1X N-2 supplement (Thermo Fisher Scientific, cat. […]

[1] = second compound 0.0316 µM, first compound 0.0316 µM
[2] = second compound 0.0316 µM, first compound 0.1 µM
[3] = second compound 0.0316 µM, first compound 0.316 µM
[4] = second compound 0.0316 µM, first compound 1 µM
[5] = second compound 0.0316 µM, first compound 3.16 µM
[6] = second compound 0.0316 µM, first compound 10 µM
[7] = second compound 0.1 µM, first compound 0.0316 µM
[8] = second compound 0.1 µM, first compound 0.1 µM
[9] = second compound 0.1 µM, first compound 0.316 µM
[10] = second compound 0.1 µM, first compound 1 µM
[11] = second compound 0.1 µM, first compound 3.16 µM
[12] = second compound 0.1 µM, first compound 10 µM
[13] = second compound 0.316 µM, first compound 0.0316 µM
[14] = second compound 0.316 µM, first compound 0.1 µM
[15] = second compound 0.316 µM, first compound 0.316 µM
[16] = second compound 0.316 µM, first compound 1 µM
[17] = second compound 0.316 µM, first compound 3.16 µM
[18] = second compound 0.316 µM, first compound 10 µM
[19] = second compound 1 µM, first compound 0.0316 µM
[20] = second compound 1 µM, first compound 0.1 µM
[21] = second compound 1 µM, first compound 0.316 µM
[22] = second compound 1 µM, first compound 1 µM
[23] = second compound 1 µM, first compound 3.16 µM
[24] = second compound 1 µM, first compound 10 µM
[25] = second compound 3.16 µM, first compound 0.0316 µM
[26] = second compound 3.16 µM, first compound 0.1 µM
[27] = second compound 3.16 µM, first compound 0.316 µM
[28] = second compound 3.16 µM, first compound 1 µM
[29] = second compound 3.16 µM, first compound 3.16 µM
[30] = second compound 3.16 µM, first compound 10 µM
[31] = second compound 10 µM, first compound 0.0316 µM
[32] = second compound 10 µM, first compound 0.1 µM
[33] = second compound 10 µM, first compound 0.316 µM
[34] = second compound 10 µM, first compound 1 µM
[35] = second compound 10 µM, first compound 3.16 µM
[36] = second compound 10 µM, first compound 10 µM
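Wherever viability, T/C is given: spheroids exposed to drugs for seven days before readout.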

C#Cc1c(F)ccc2cc(O)cc(-c3ncc4c(N5CC6CCC(C5)N6)nc(OCC56CCCN5CC(F)C6)nc4c3F)c12 (centres undefined) + COC1C(OC(N)=O)C(O)C(Oc2ccc3c(O)c(NC(=O)c4ccc(O)c(CC=C(C)C)c4)c(=O)oc3c2C)OC1(C)C
IC50 (second compound 0.0316 µM): > 10 µM
IC50 (second compound 0.1 µM): > 10 µM
IC50 (second compound 0.316 µM): > 10 µM
IC50 (second compound 1 µM): > 10 µM
IC50 (second compound 3.16 µM): > 10 µM
IC50 (second compound 10 µM): > 10 µM
viability, T/C [1]: 101%
viability, T/C [2]: 116%
viability, T/C [3]: 76.9%
viability, T/C [4]: 95.8%
viability, T/C [5]: 82.4%
viability, T/C [6]: 76%
viability, T/C [7]: 82%
viability, T/C [8]: 106%
viability, T/C [9]: 86.2%
viability, T/C [10]: 81.4%
viability, T/C [11]: 91.7%
viability, T/C [12]: 85.4%
viability, T/C [13]: 79.3%
viability, T/C [14]: 96.5%
viability, T/C [15]: 73.9%
viability, T/C [16]: 107%
viability, T/C [17]: 109%
viability, T/C [18]: 74.2%
viability, T/C [19]: 87.9%
viability, T/C [20]: 98.7%
viability, T/C [21]: 89.3%
viability, T/C [22]: 111%
viability, T/C [23]: 98.1%
viability, T/C [24]: 91.3%
viability, T/C [25]: 83.7%
viability, T/C [26]: 105%
viability, T/C [27]: 91.4%
viability, T/C [28]: 107%
viability, T/C [29]: 86.6%
viability, T/C [30]: 84%
viability, T/C [31]: 88.2%
viability, T/C [32]: 84.8%
viability, T/C [33]: 98.5%
viability, T/C [34]: 100%
viability, T/C [35]: 93.2%
viability, T/C [36]: 71.1%

C#Cc1c(F)ccc2cc(O)cc(-c3ncc4c(N5CC6CCC(C5)N6)nc(OCC56CCCN5CC(F)C6)nc4c3F)c12 (centres undefined) + Cc1cccc(N(C)C(=O)C2C(O)CCN2c2nc(C)cc(C(F)(F)F)c2C#N)c1
IC50 (second compound 0.0316 µM): > 10 µM
IC50 (second compound 0.1 µM): > 10 µM
IC50 (second compound 0.316 µM): > 10 µM
IC50 (second compound 1 µM): > 10 µM
IC50 (second compound 3.16 µM): > 10 µM
IC50 (second compound 10 µM): > 10 µM
viability, T/C [1]: 88%
viability, T/C [2]: 81.1%
viability, T/C [3]: 79.9%
viability, T/C [4]: 71.3%
viability, T/C [5]: 95.8%
viability, T/C [6]: 74%
viability, T/C [7]: 103%
viability, T/C [8]: 98.6%
viability, T/C [9]: 92.9%
viability, T/C [10]: 76%
viability, T/C [11]: 118%
viability, T/C [12]: 79.6%
viability, T/C [13]: 96.1%
viability, T/C [14]: 105%
viability, T/C [15]: 91.2%
viability, T/C [16]: 80.2%
viability, T/C [17]: 75.4%
viability, T/C [18]: 77.4%
viability, T/C [19]: 77.1%
viability, T/C [20]: 106%
viability, T/C [21]: 82.8%
viability, T/C [22]: 89.9%
viability, T/C [23]: 91.2%
viability, T/C [24]: 79%
viability, T/C [25]: 83.5%
viability, T/C [26]: 80.3%
viability, T/C [27]: 87.3%
viability, T/C [28]: 93.7%
viability, T/C [29]: 82.7%
viability, T/C [30]: 69.8%
viability, T/C [31]: 102%
viability, T/C [32]: 80.1%
viability, T/C [33]: 95.5%
viability, T/C [34]: 85.9%
viability, T/C [35]: 91.6%
viability, T/C [36]: 61.8%
